Source: patent US20020188202A1, “Method of diagnosis and treatment and related compositions and apparatus” (priority 1996, published 2002)
Entries after “also recorded” stand apart in the source; their conditions may differ.

What was measured:
[1] = tested on: adult ADD patients with vasospasm; assay: Attention Deficit Disorder siblings treated with vasodilators, serial TCD and neuropsychological testing; type: in vivo, human patients; settings: male; for right MCA mean flow velocity: baseline 0.86; for left MCA mean flow velocity: baseline 0.92
Protocol: Both were administered a battery of tests which measured neuropsychological functioning and personality variables.
On referral for neurological evaluation, mild physical and significant objective testing abnormalities were found. […] Both, further, had difficulty performing a Tandem Gait with complete ease. The physical exam was otherwise normal. An EEG and computerized EEG were performed and were abnormal.
Both individuals were treated with vasodilating medications for 10 months and received psychotherapy and vocational counseling. Relaxation and hypnotherapy were also used to develop visualization skills for both recall of successful social and work experiences and to visualize successful outcomes of activities to do.
In serial testing, the […] underwent TCD's on three separate occasions on the same day. […] By the end of the day, […] identified that […] could read, understand and retain news articles and magazine articles. […] could also follow a television show throughout. […] could do neither at the beginning of the day.
On the basis of the objective disorders of flow and the patient's reported and observed improvement during the trial episode of administering medications to decrease the observed vasospasm, we started the sibling on vasodilators. […] This regimen was made up of a low dose Calcium Channel Blocker, and an ACE inhibitor along with low dose Nitroglycerine and a Clonidine patch.

[2] = tested on: patients with cerebral vasospasm; assay: Vasoactive medications tried on Applicant's patients with vasospasm, monitored by Transcranial Doppler (TCD), exam and symptoms
Description: As headache was a major complaint of many of Applicant's patients, we tried these medications out including Imitrex (Sumatriptan), IM Toradol (Ketoralac) and other medications under direct monitoring. […] Rather, it was expected that one or another set of medications might help point the way into using specific classes of medications or approaches. Accordingly, each of these patients. equivalent of a large number of patients, were monitored continuously across the day.
With respect to the different monitoring tools, some were more helpful than others. […] The Brain Stem Auditory Evoked Response and other evoked potential tests were very insensitive tools for monitoring, because of the length of time required to perform the test after short-acting medications were given in IM or sublingual or nasal spray administration route. […] These symptoms included not only headache, but also sensations of confusion, balance disorder, abnormal Romberg or Tandem Gait of other neurological abnormalities.
As headache was a major complaint of many of these patients, Applicant tried these medications out including Imitrex (Sumatriptan), IM Toradol (Ketoralac) and other medications under direct monitoring. […] Rather, it was expected that one or another set of medications might help point the way into using specific classes of medications or approaches. Accordingly, each of these patients, equivalent of a large number of patients, is monitored continuously across the day.
With respect to the different monitoring tools, some were more helpful than others. […] The Brain Stem Auditory Evoked Response and other evoked potential tests were very insensitive tools for monitoring, because of the length of time required to perform the test after short-acting medications were given in IM or sublingual or nasal spray administration route.

[3] = tested on: patient with migraine, schizophrenic reaction and vasospasm; assay: Case study: psychosis caused by cerebral ischemia, EEG and TCD; type: in vivo, human patient; settings: single patient
[4] = tested on: migraine patients with vasospasm on TCD; assay: Migraine patients treated with Nitroglycerine patches, TCD and neurological exam; type: in vivo, human patients
Protocol: All patients are evaluated with a complete history, physical exam, and neurological exam by a Board Certified Neurologist. All patients have blood work consisting of a CBC with differential count and platelets as well as an SMA-30 obtained. All whiplash related patients underwent a CT or MRI of the brain, EEG and qEEG, B-mode and spectral analysis ultrasound of the subclavian, carotid, and vertebral circulation, and Transcranial Doppler (TCD) examination of the intracranial circulation. In some situations, repetitive Transcranial Doppler examinations are performed on the same patient in the same day. Initially, these tests are performed by maintaining the probe on the patient's head through the course of several hours, but later the technique involves using the same probe, patient position, technician, depth, and cranial window with serial but interrupted exams across the course of the day. In all cases, the highest spectral frequencies are recorded, as well as repeat exams at the same depth and window as the baseline pre-medication windows were obtained. Immediately prior to initial TCD exams, a neurological exam is carried out. At the time of initiation of treatment for the cerebral vasospasm, at which time vasoactive medications are administered after the baseline TCD and neuro exam are obtained, repeat TCD exams are carried out and when medication effects on the intracranial circulation were identified, repeat neurological exams are obtained. In 5 patients, P300 are obtained prior to initiation of treatment and, again, several months later. The same methodology is used in those patients referred for evaluation of possible MS-like syndrome as recognized in the recent global settlement. With these patients, triple evoked potentials, EEG and qEEG, and a vascular evaluation as outlined above is carried out in all patients, and in 11 who decided to attempt treatment with vasoactive drugs, the methodology outlined above for initiation of as in the MVA-related post-concussion syndrome are used. 10 of the 19 MS-like syndrome patients additionally had brain MRI tests performed. […]

[5] = second TCD of the day after repetitive applications
[6] = third TCD of the day after repetitive applications
[7] = human, in vivo, listed as Nitroglycerine

## O=[N+]([O-])OCC(CO[N+](=O)[O-])O[N+](=O)[O-] [Nitroglycerin]
[1]; same day serial testing
  concentration (self-assessment): significant improvement in concentration
  neurological exam (balance testing): exam progressively normalized
[1]; [5]
  right MCA mean flow velocity: 0.79 meters/second
  left MCA mean flow velocity: 0.84 meters/second
[1]; [6]
  right MCA mean flow velocity: 0.72 meters/second
  left MCA mean flow velocity: 0.79 meters/second
[2]; human, in vivo
  effect on vessels seen on TCD / ultrasound (vasoconstriction or dilatation): resulted in vascular dilatation
  headache: improvement in the patient's headache
  neurological exam and other neurological abnormalities: improvement of any other neurological abnormalities
[2]; [7]
  headache: alleviated or treated the headache
  neurological exam and other neurological abnormalities: clinical and neurological exam improvement
[2]; witnessed on TCD or clinically
  transient supersensitivity (transient worsening of the vasospasm) on early administration: can give transient severe vasoconstrictive episodes
[3]
  headaches / migraines: complete resolution of their daily headaches; also recorded: headaches completely resolved as did memory disturbances, concentration problems and emotional lability; also recorded: responded promptly
[4]; 3 patients
  follow-up TCD at the end of application of the patch: confirmed reduction of the vasospasm
[4]; human, in vivo
  lower extremity hyper-reflexia, Rhomberg and tandem gait abnormalities: all resolved
[4]; patches applied for 10 minutes to 1 hour, 5 patients
  headache: headache resolved
